Data: patent US20090170949A1, “Method To Control Body Weight” (priority 2006, published 2009)

What was measured:
[1] = Triglycerides in blood plasma of obese marmosets treated with coated lactisole pills; type: in vivo, common marmoset monkeys (Callithrix jacchus); set-up: Triglycerides in blood plasma: unit not given here
Protocol: 5 mm diameter coated pill were made, comprising 20 mg tablettose, 26.5 mg Avicell PH 102, 2.5 mg Crospovidone and 1 mg Mg-stearate for the placebo, and 35 mg sodium 2-(4-methoxyphenoxy)propionate (Endeavour speciality chemicals), 11.5 mg Avicel PH 102, 2.5 mg Crospovidone and 1 mg Mg-stearate for the Lactisole pills. Pills were coated in a fluidized bed (GCPG1, Glatt), at a spray rate of 4 g/min, atomic pressure 1.5 bar, inlet air temperature 36° C., product temperature 31° C. at maximal air velocity. The composition of the coating solution was 11.4% Eudragit® EPO(Röhm Pharma), 1.14% Sodium lauryl sulphate (α-pharma), 4% Mg-stearate (α-pharma), 1.72% stearic acid (α-pharma) and water ad 100%.
Adult male and female common marmoset monkeys (Callithrix jacchus) were from the breeding colony of the German Primate Center (DPZ), Göttingen, Germany. Animals were housed in pairs in air-conditioned facilities on a 12 hr/12: HR light/dark cycle.
Animals were fed two times a day: mash feeding, containing 15 g of test diet in the morning, and 60 g of test diet in the afternoon (value per animal). Each time before feeding, the animals received two pills (either placebo or lactisole) in nutrical gel.
Three groups of marmosets were compared: 11 obese animals treated with lactisole, 11 obese animals receiving placebo and 12 lean control animals receiving placebo. The experiment is carried out for 10 weeks, and bodyweight, glycated hemoglobin HbA1c, and glucose in blood plasma is measured. […]
Obese animals were treated for 7 weeks with lactisole (70 mg, two times a day, before feeding). Control obese and lean animals received placebo pills.

[2] = Effect of lactisole on body weight (applicant's general finding); type: in vivo; details: also when encapsulated and/or coated to avoid contact with the taste receptor of the mouth
[3] = rats, high lactisole concentrations added to the diet; considered statistically insignificant; cited from earlier work
[4] = Body weight gain and food intake of mice on low carbohydrate diet with or without sucralose; type: in vivo, mice (C57BL/6); details: C57BL/6 mice, low carbohydrate diet with 0.3% sucralose, ad libitum, 12 weeks
From the text: induction of weight increase in mice by the use of an artificial sweetener Two groups of mice (C57BL/6) were fed ad libitum with a low carbohydrate diet (1.9% remaining carbohydrate, Purina), with or without 0.3% sucralose (Tate and Lyle). Food consumption and body weight was followed for a period of 12 weeks.

[5] = test system: SGLT1; experiment: SGLT1 protein expression (western blot of luminal membrane vesicles) in wild-type mice on low carbohydrate plus sucralose diet; type: in vivo, mouse; details: 2 weeks
Protocol: (§1) Male CD-1 and C57BL/6 mice, six weeks old, from Charles River Laboratories were used. The α-gustducin knock out mouse was described by Wong et al. (1996); the T1R3 knock out mouse was described by Damak et al. 2003).
(§2) High and low carbohydrate diets were resp. TestDiet® 5810 and TestDiet® 5787-9. For the sucralose test, the low carbohydrate diet was supplemented with sucralose (1,6-dichloro-1,6-dideoxy-beta-D-fructofuranosyl-4-chloro-4-deoxy-alpha-galactopyranoside) at 2 mM.
(§3) Animals were killed by concussion followed by cervical dislocation. The entire small intestine was removed and flushed with ice-cold 0.9% NaCl, opened longitudinally, rinsed in saline and mucous removed by blotting. The small intestine was then divided into proximal, mid and distal sections and the mucosa removed by scraping. Mucosal scrapings were frozen immediately in liquid nitrogen and stored at −80° C. until use. […]
(§4) Second, groups of wild-type and T1R3 and α-gustducin KO mice were placed on each of three iso-caloric diets a) low carbohydrate, b) high carbohydrate, and c) low carbohydrate+artificial sweetener (sucralose), for two weeks. After this time the mice were killed and the small intestines were removed, divided into proximal, mid and distal regions, and SGLT1 expression, at protein and mRNA levels, were measured in each.

[6] = test system: SGLT1; experiment: SGLT1 expression in α-gustducin knock-out mice on low carbohydrate plus sucralose diet; type: in vivo, mouse; details: α-gustducin KO mice, 2 weeks
Protocol: as §1, §2, §3, §4

[7] = test system: SGLT1; experiment: SGLT1 mRNA levels (real-time PCR) in small intestine of wild-type mice on low carbohydrate plus sucralose diet; type: in vivo, mouse; details: proximal and mid intestinal regions, sucralose (2 mM) added to low carbohydrate diet, 2 weeks, qPCR
Protocol: as §1, §2, §3, §4

[8] = male and female dogs, diet with various concentrations of sucralose; cited from earlier work
[9] = test system: SGLT1; experiment: SGLT1 expression in T1R3 knock-out mice on low carbohydrate plus sucralose diet; type: in vivo, mouse; details: T1R3 KO mice, 2 weeks
Protocol: as §1, §2, §3, §4

Compound: COc1ccc(OC(C)C(=O)O)cc1 (stereo not drawn) [Lactisole, sodium 2-(4-methoxyphenoxy) propanoate]
- Triglycerides in blood plasma ([1]; obese marmosets N = 11, high carb feeding week 0, week −4 with respect to lactisole treatment (before treatment)): 2.75
- Triglycerides in blood plasma ([1]; obese marmosets N = 11, high carb feeding week 3, week −1 with respect to lactisole treatment (before treatment)): 2.24
- Triglycerides in blood plasma ([1]; obese marmosets N = 11, high carb feeding week 5, week 1 of lactisole treatment, 70 mg two times a day): 1.82
- Triglycerides in blood plasma ([1]; obese marmosets N = 11, high carb feeding week 7, week 3 of lactisole treatment, 70 mg two times a day): 1.85
- Triglycerides in blood plasma ([1]; obese marmosets N = 11, high carb feeding week 9, week 5 of lactisole treatment, 70 mg two times a day): 1.57
- Triglycerides in blood plasma ([1]; obese marmosets N = 11, high carb feeding week 11, week 7 of lactisole treatment, 70 mg two times a day): 1.52
- serum triglyceride level, course in treated obese animals ([1]; obese marmosets, 7 weeks lactisole 70 mg two times a day before feeding): decreasing to the level of the lean control
- effect on body weight [2]: body weight loss
- body-weight gain [3]: reduction in body-weight gain

Compound: OC[C@H]1O[C@H](O[C@]2(CCl)O[C@H](CCl)[C@@H](O)[C@@H]2O)[C@H](O)[C@@H](O)[C@H]1Cl [sucralose, 1,6-dichloro-1,6-dideoxy-beta-D-fructofuranosyl-4-chloro-4-deoxy-alpha-galactopyranoside]
- average increase in body weight gain versus control group [4]: 42%
- food intake higher than control group [4]: 7.5%
- SGLT1 protein expression [5]: increased
- SGLT1 mRNA response [6]: no increase
- SGLT1 protein response [6]: no increase
- increase of SGLT1 mRNA [7]: 30-70%
- body weight gain and final body weight [8]: gaining more rapidly body weight and reached a higher final body weight level
- SGLT1 mRNA response [9]: no increase
- SGLT1 protein response [9]: no increase
